Laboratory results taken from publication PMC8388125, “Kinetic and Structural Characterization of the Self-Labeling Protein Tags HaloTag7, SNAP-tag, and CLIP-tag” (Biochemistry, 2021).

Assays:
[1] = target: T1, HT7^D106A (Rhodococcus sp., UniProt P59336, A155T/A167V/A224E/C128F/C176G/D106A/D78G/E160K/E257K/G292T/H272N/K175M/K195N/L47V/L88M/N227D/P291S/S2A/S58T/T264A/V172T/Y273L/Y87F); assay: Affinity of HT7^D106A for CA substrates by fluorescence polarization; assay type: binding
T1 construct: made in house; host or cells: E. coli BL21(DE3)-pLysS
Experimental: Binding affinities of HT7^D106A or HOB^D106A for chloroalkane (CA) substrates were determined by fluorescence polarization (FP, eq 1) measurements using a microplate reader (Spark20M, Tecan Group AG, Männedorf, Switzerland). The fluorescent substrates (10 nM) were titrated against different protein concentrations (0–250 μM) in activity buffer supplemented with 0.5 g/L bovine serum albumin (BSA). Assays were performed in black low-volume nonbinding 384-well plates (Corning Inc., Corning, NY) with a final volume of 20 μL. Obtained FP values were averaged and fitted to a single-site binding model (eq 2) to estimate Kd values for each fluorescent substrate. The FP value of each dye fully reacted with the native HT7 was used to improve fitting of the upper plateau of the curves by adding an extra data point at a protein concentration of 0.1 M. [drawing 1] 1 where FP is the fluorescence polarization, I∥ is the fluorescence intensity parallel to the excitation light polarization, I⊥ is the fluorescence intensity perpendicular to the excitation light polarization, and G is the grating factor (G = I∥/I⊥). [drawing 2] 2 where FPmin is the fluorescence polarization of the free fluorophore (lower plateau), FPmax is the maximal fluorescence polarization of fully bound fluorophore (upper plateau), Kd is the dissociation constant, and [protein] is the protein concentration.
(§1) Free binding energies were calculated from Kd values according to eq 4: [drawing 4] 4 where ΔG is the free binding energy, R is the universal gas constant, T is the temperature, and Kd is the dissociation constant.

[2] = tested on: HOB (halo-based oligonucleotide binder, HT7 variant); assay: HOB labeling kinetics via stopped flow (fluorescence anisotropy); assay type: biochemical, Rhodococcus sp.
Experimental: (§2) Labeling kinetics of HT7 with CA-TMR, CA-JF549, CA-CPY, CA-LIVE580, and CA-JF669 and labeling kinetics of HOB with CA-TMR were measured by recording fluorescence anisotropy changes over time using a BioLogic SFM-400 stopped-flow instrument (BioLogic Science Instruments, Claix, France) in a single-mixing configuration at 37 °C. HT7 protein and substrates in activity buffer were mixed in a 1:1 stoichiometry to reach a recordable speed for these fast reactions and to increase the information content of the traces. Concentrations were varied from 0.125 to 1 μM. The anisotropy of the free substrate was measured to obtain a baseline.
Kinetic stopped-flow data were preprocessed using a custom R script.[36],[37] Recorded pretrigger time points were removed, and time points were adjusted to start at time zero. Values from replicates were averaged. The anisotropy of the free dye was calculated by averaging anisotropy values of the baseline measurements. Preprocessed data were fitted to a kinetic model (eqs 5 and 6) described by differential eqs 7–10 using the DynaFit software.[38] The anisotropy of the free dye and the mixing delay of the stopped-flow machine were set as fixed offset and delay parameters in DynaFit. […] In the case of SNAP kinetics with BG-TMR, the substrate concentration was fitted by DynaFit to rule out quantification errors of the BG-quenched fluorophore. […]

[3] = target: T2, HaloTag7 (HT7) (Rhodococcus sp., UniProt P59336, A155T/A167V/A224E/C128F/C176G/D78G/E160K/E257K/G292T/H272N/K175M/K195N/L47V/L88M/N227D/P291S/S2A/S58T/T264A/V172T/Y273L/Y87F); assay: HT7 labeling kinetics via stopped flow (fluorescence anisotropy); assay type: biochemical
T2 construct: made in house; host or cells: E. coli BL21(DE3)-pLysS
Experimental: as §2
Kinetic stopped-flow data were preprocessed using a custom R script.[36],[37] Recorded pretrigger time points were removed, and time points were adjusted to start at time zero. Values from replicates were averaged. The anisotropy of the free dye was calculated by averaging anisotropy values of the baseline measurements. Preprocessed data were fitted to a kinetic model (eqs 5 and 6) described by differential eqs 7–10 using the DynaFit software.[38] The anisotropy of the free dye and the mixing delay of the stopped-flow machine were set as fixed offset and delay parameters in DynaFit. It was assumed that the protein substrate complex and the reacted product are contributing equally to the anisotropy signal. […] Standard deviations (normal distribution verified) and confidence intervals of fitted parameters were estimated with the Monte Carlo method[39] with standard settings (N = 1000, 5% worst fits discarded). In the case of SNAP kinetics with BG-TMR, the substrate concentration was fitted by DynaFit to rule out quantification errors of the BG-quenched fluorophore. Accurate fitting of the concentration was ensured by including conditions in which protein is limiting and no maximum FP value was reached.

[4] = target: T1, HT7^D106A; assay: Affinity of HT7 for methyl-amide fluorophores by fluorescence polarization; assay type: binding
Experimental: Binding affinities of HT7 for methyl-amide fluorophores were determined by fluorescence polarization in a manner analogous to that of CA substrates described above with the following changes. Fluorescent substrates were used at a final concentration of 50 nM, and measurements were performed at room temperature.
as §1

[5] = target: T3, SNAP^C145A (Homo sapiens, UniProt P16455, A127T/A154D/C145A/C150Q/C62A/G131K/G132T/G153L/K125A/K32I/L33F/M134L/N157G/Q115S/Q116H/R128A/R135S/S151G/S152D/S159E); assay: Affinity of SNAP^C145A for BG and CP fluorescent substrates by fluorescence polarization; assay type: binding; details: SNAP^C145A, fluorescence polarization, room temperature
T3 construct: made in house; host or cells: E. coli BL21(DE3)-pLysS
T3 sequence (P16455 1-182 K32I/L33F/C62A/Q115S/Q116H/K125A/A127T/R128A/G131K/G132T/M134L/R135S/C145A/C150Q/S151G/S152D/G153L/A154D/N157G/S159E limits assumed): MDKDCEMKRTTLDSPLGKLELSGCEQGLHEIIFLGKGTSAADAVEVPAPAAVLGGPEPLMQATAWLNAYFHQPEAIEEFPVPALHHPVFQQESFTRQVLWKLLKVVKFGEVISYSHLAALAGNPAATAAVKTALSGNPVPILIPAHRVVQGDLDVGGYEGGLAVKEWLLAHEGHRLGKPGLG
Experimental: Binding affinities of SNAP^C145A and SNAPf^C145A for BG-Alexa488, CP-Alexa488, BG-fluorescein, CP-fluorescein, BG-MAP555, BG-JF549, BG-TMR(6), BG-TMR(5), CP-TMR, BG-CPY(6), BG-CPY(5), CP-CPY, BG-SiR, CP-SiR, BG-JF646, BG-Atto565, BG-Atto590, BG-sulfo-Cy3, BG-Cy3, BG-sulfo-Cy5, and BG-Cy5 were determined by fluorescence polarization in a manner analogous to that for HT7 affinities for CA substrates described above with the following changes. Fluorescent substrates were titrated at a final concentration of 50 nM against protein concentrations ranging from 0 to 250 μM at room temperature using 0.1 g/L BSA and 1 mM DTT (SNAP-FP buffer). The FP value of each dye fully reacted with the native SNAP/SNAPf was used to improve fitting of the upper plateau of the curves by adding an extra data point at a protein concentration of 0.005 M.

[6] = target: T2, HaloTag7 (HT7); assay: HT7 competitive labeling kinetics against CA-Alexa488; assay type: biochemical; details: HT7, nonfluorescent substrates, competition with CA-Alexa488, 37 °C
Experimental: Competitive kinetics were measured by recording FP over time using a microplate reader (Spark20M, Tecan). The final concentrations of CA-Alexa488 (50 nM) and HT7 protein (200 nM) remained constant with varying concentrations of nonfluorescent substrates (0–1 μM) in activity buffer supplemented with 0.5 g/L BSA. Assays were performed in black nonbinding flat bottom 96-well plates with a final reaction volume of 200 μL. Labeling reactions were started by adding the HT7 protein to wells containing CA-Alexa488 and nonfluorescent substrates using an electronic 96-channel pipettor (Integra Bioscience Corp., Hudson, NH). The FP of free CA-Alexa488 was measured to obtain a baseline.
Data were fitted to a simplified kinetic competition model (eqs 19 and 20) described by differential eqs 21–25 using DynaFit. The dead time of the measurements and baseline FP value were put in as fixed parameters. Standard deviations (normal distribution verified) and confidence intervals of fitted parameters were estimated with the Monte Carlo method with standard settings (N = 1000, 5% worst fits discarded). [drawing 19] 19 [drawing 20] 20 where P is the SLP protein, S is the fluorescent SLP substrate, I is the nonfluorescent SLP substrate (inhibitor), PS is the protein–fluorescent substrate conjugate, and PI is the protein–nonfluorescent substrate conjugate. [drawing 21] 21 [drawing 22] 22 [drawing 23] 23 [drawing 24] 24 [drawing 25] 25

[7] = target: T1, HT7^D106A; assay: Affinity of HT7^D106A for CA-Ac via FP competition assay against CA-TMR; assay type: binding
Experimental: The binding affinity of HT7^D106A for CA-Ac was determined by a fluorescence polarization competition assay against CA-TMR. Therein, 5 μM protein and 50 nM CA-TMR were titrated against CA-Ac concentrations ranging from 80 μM to 10 mM in activity buffer supplemented with 0.5 g/L BSA. Assays were performed in low-volume nonbinding black 384-well plates (Corning Inc.) with a final volume of 20 μL using a microplate reader (Spark20M, Tecan). Obtained FP values were averaged and fitted to a four-parameter logistic curve (eq 3) to estimate the I50 value. The lower plateau was fixed to the measured FP value of the free dye to improve the fit. The dissociation constant of CA-Ac was calculated as described by Rossi and Taylor.[35] [drawing 3] 3 where FPmin is the fluorescence polarization of the free fluorophore (lower plateau), FPmax is the maximal fluorescence polarization of the fully bound fluorophore (upper plateau), I50 is the half-maximal effective concentration, and [ligand] is the ligand concentration.
as §1

T1 sequence (P59336 other isoform, or with tags, fused parts or gaps with the stated changes): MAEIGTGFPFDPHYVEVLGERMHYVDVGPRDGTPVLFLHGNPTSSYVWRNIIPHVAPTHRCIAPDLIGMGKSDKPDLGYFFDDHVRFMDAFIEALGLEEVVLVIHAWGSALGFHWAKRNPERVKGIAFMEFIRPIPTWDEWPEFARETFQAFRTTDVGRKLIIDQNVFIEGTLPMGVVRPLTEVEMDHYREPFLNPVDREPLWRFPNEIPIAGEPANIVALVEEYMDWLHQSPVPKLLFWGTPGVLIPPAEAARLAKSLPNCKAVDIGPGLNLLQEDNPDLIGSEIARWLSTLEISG
T2 sequence (P59336 other isoform, or with tags, fused parts or gaps with the stated changes): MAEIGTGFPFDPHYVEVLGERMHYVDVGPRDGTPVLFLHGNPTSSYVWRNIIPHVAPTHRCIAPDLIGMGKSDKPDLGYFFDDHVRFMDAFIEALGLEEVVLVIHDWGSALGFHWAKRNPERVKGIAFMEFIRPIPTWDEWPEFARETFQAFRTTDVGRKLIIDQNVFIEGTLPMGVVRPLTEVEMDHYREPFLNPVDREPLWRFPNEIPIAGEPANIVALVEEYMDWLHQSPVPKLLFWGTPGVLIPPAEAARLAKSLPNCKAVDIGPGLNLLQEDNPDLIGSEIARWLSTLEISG

## CN(C)c1ccc2c(-c3cc(C(=O)NCCOCCOCCCCCCCl)ccc3C(=O)[O-])c3ccc(=[N+](C)C)cc-3oc2c1 [CA-TMR, chloroalkane-PEG-tetramethylrhodamine]
[1]
  Kd: 6.24 µM
[1]; HT7^D106A
  fold decrease in affinity of the 5-substituted compared to the 6-substituted rhodamine substrate: 6.31 fold
[1]; HT7^D106A, calculated from Kd
  free binding energy (ΔG): 30.9 kJ mol^–1
[2]; HOB vs HT7
  fold decrease in kapp of HOB compared to HT7: 2.09 ± 0.01 fold
[2]; HOB, stopped flow, model 2
  k2 (± S.D.): 5.05 (± 0.13) s-1
[3]
  Kd: 0.327 µM
[3]; HT7, stopped flow, model 2
  k2 (± S.D.): 8.06 (± 0.29) s-1

## CNC(=O)c1ccc(C(=O)[O-])c(-c2c3ccc(=[N+](C)C)cc-3oc3cc(N(C)C)ccc23)c1 [meAm-TMR]
[4]; calculated from Kd
  free binding energy (ΔG): −16.7 kJ mol^–1
[4]; fluorescence polarization, room temperature
  Kd: 1510 µM
[5]
  Kd^C145A: no affinity could be measured

## CC(=O)NCCOCCOCCCCCCCl [CA-Ac, acetylated chloroalkane]
[6]
  kapp (value ± standard deviation): (1.53 ± 0.02) × 10^3 M^–1 s^–1
[7]
  Kd: 2620 µM
[7]; HT7^D106A, calculated from Kd
  free binding energy (ΔG): −15.3 kJ mol^–1
